From ChEMBL document CHEMBL5325426, “Structure-based discovery of potent USP28 inhibitors derived from Vismodegib” (Eur J Med Chem, 2023) come the findings set out here.

Structures are written as SMILES.

The first assay has as its system LS174T. As to the kind of experiment: Antiproliferative activity against human LS174T cells assessed as cell growth inhibition incubated for 3 days by SRB assay. It is filed as functional, cell-based. The conditions noted are these: 72 h.
Broadly, the IC50 is the concentration at which inhibition is half-maximal. As to `Cc1ccc2c(N)c(C(=O)N[C@H]3CCc4cc(N5CC6CCC(C5)N6)ccc4C3)sc2n1`, the concentration for half-maximal inhibition (IC50) amounted to 0.07 µM.

The next assay has as its target T1, Ubiquitin carboxyl-terminal hydrolase 28 (Homo sapiens, UniProt Q96RU2).
T1 sequence (Q96RU2 whole entry): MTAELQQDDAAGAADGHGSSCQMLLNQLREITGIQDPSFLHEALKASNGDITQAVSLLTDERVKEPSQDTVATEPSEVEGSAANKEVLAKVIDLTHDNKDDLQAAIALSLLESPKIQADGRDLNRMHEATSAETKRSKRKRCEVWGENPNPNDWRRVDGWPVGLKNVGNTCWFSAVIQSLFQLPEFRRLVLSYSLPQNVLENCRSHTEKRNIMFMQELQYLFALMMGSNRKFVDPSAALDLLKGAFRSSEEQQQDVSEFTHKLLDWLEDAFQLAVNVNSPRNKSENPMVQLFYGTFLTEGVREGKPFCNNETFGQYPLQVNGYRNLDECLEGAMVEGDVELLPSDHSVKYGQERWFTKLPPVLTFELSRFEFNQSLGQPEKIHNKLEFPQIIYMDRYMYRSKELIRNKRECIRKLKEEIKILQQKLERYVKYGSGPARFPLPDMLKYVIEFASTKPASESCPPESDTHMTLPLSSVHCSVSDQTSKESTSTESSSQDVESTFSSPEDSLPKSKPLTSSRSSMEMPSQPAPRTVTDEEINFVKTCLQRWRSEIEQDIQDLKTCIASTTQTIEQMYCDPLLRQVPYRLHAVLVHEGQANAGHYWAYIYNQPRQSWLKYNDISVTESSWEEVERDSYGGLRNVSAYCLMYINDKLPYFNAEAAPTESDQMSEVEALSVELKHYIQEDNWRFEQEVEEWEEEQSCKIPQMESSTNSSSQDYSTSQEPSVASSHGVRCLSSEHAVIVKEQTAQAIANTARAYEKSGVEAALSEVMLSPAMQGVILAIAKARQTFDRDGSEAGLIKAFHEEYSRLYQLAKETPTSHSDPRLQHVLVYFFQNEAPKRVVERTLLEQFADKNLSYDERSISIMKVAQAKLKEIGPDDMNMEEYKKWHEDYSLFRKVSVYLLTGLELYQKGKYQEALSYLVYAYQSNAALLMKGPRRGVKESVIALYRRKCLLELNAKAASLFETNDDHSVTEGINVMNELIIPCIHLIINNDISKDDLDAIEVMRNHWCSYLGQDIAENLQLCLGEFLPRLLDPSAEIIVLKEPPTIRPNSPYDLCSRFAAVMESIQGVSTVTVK
As to the kind of experiment: Inhibition of USP28 (149 to 703 residues) (unknown origin) expressed in Escherichia coli BL21 (DE3) using Ub-AMC as substrate by fluorescence based analysis.
Conditions: not given
Take `CS(=O)(=O)c1ccc(C(=O)Nc2ccc(Cl)c(-c3ccccc3N)c2)c(Cl)c1`: the IC50 was found to be 8.58 µM. Same read-out and setting: the same measure for `CS(=O)(=O)c1ccc(C(=O)Nc2ccc(Cl)c(-c3ccc(CN)cn3)c2)c(Cl)c1`: 2.13 µM; for `Cc1ccc2c(N)c(C(=O)N[C@H]3CCc4cc(N5CC6CCC(C5)N6)ccc4C3)sc2n1`: 0.11 µM; for `COc1ccc(-c2cc(NC(=O)c3ccc(S(C)(=O)=O)cc3Cl)ccc2Cl)cc1`: 2.94 µM. `CS(=O)(=O)c1ccc(C(=O)Nc2ccc(Cl)c(-c3ccc(N)cc3)c2)c(Cl)c1`: the concentration for half-maximal inhibition (IC50) worked out at 5.68 µM.

In the case of `CS(=O)(=O)c1ccc(C(=O)Nc2ccc(Cl)c(-c3ccc(N4CCNCC4)cc3)c2)c(Cl)c1`, 4.24 µM corresponded to half-maximal inhibition (IC50).

`CN(C)c1ccc(-c2cc(NC(=O)c3ccc(S(C)(=O)=O)cc3Cl)ccc2Cl)cc1`: the half-inhibitory concentration (IC50) turned out to be 2.82 µM.

Consider `CS(=O)(=O)c1ccc(C(=O)Nc2cc(Cl)cc(-c3ccc(CN)cc3)c2)c(Cl)c1`, for which the midpoint of inhibition, the IC50, lay at 1.13 µM. Same read-out and setting: the same measure for `CS(=O)(=O)c1ccc(C(=O)Nc2ccc(Cl)c(-c3ccc(CN)cc3)c2)c(Cl)c1`: 0.36 µM. Consider `CS(=O)(=O)c1ccc(C(=O)Nc2ccc(Cl)c(-c3cccc(N)c3)c2)c(Cl)c1`, for which it took 11 µM to reach half-maximal inhibition (IC50). Still for that read-out and setting: the result for `CS(=O)(=O)c1ccc(C(=O)Nc2ccc(Cl)c(-c3cccc(CN)c3)c2)c(Cl)c1` reads 0.15 µM.

Another assay deals with HCT-116. In words: Antiproliferative activity against human HCT-116 cells assessed as cell growth inhibition incubated for 3 days by SRB assay. Type of assay: functional, cell-based. The conditions noted are these: HCT-116, 72 h. In general terms: In SRB staining, fixed cells bind dye roughly in proportion to their protein.
Take `Cc1ccc2c(N)c(C(=O)N[C@H]3CCc4cc(N5CC6CCC(C5)N6)ccc4C3)sc2n1`: the IC50 came to 0.19 µM.

The next assay concerns Calu-1. As to the kind of experiment: Antiproliferative activity against human Calu-1 cells assessed as cell growth inhibition incubated for 3 days by SRB assay. It is filed as functional, cell-based. The note with it: Calu-1, 72 h.
In the case of `Cc1ccc2c(N)c(C(=O)N[C@H]3CCc4cc(N5CC6CCC(C5)N6)ccc4C3)sc2n1`, the IC50 was 0.32 µM.

The test system of the next assay is NCI-H226. In words: Antiproliferative activity against human NCI-H226 cells assessed as cell growth inhibition incubated for 3 days by SRB assay. Type of assay: functional, cell-based. The conditions noted are these: NCI-H226, 72 h.
For `Cc1ccc2c(N)c(C(=O)N[C@H]3CCc4cc(N5CC6CCC(C5)N6)ccc4C3)sc2n1`, the half-inhibitory concentration (IC50) worked out at 0.15 µM.
